We go through seven molecules from PubChem BioAssay (NCI).

Where “and” joins values, the source holds several entries; their conditions need not be identical. Equal values may be shown once.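 All cell lines were grown in 96-well plates and treated with compound for 48 hours. The concentration for 50% growth inhibition is given as GI50. At the TGI there is no net growth.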 Bounds are passed on as bounds.

Among the test systems are DU-145 prostate; MDA-MB-435; HOP-62 NSCLC; SK-MEL-2 melanoma; T-47D breast; MDA-MB-231 breast; SF-539 CNS; HCT-116 colon; OVCAR-3 ovarian; UACC-257 melanoma.
Assay in all cases: inhibition of tumour cell growth, NCI panel, 48 h

`O=C(NOCCO)c1ccc2cncn2c1Nc1ccc(I)cc1F`: the GI50 in the assay with DU-145 prostate is > 10 µM and 19.9 µM; in the assay with MDA-MB-435, 7.56 nM and < 10 nM; in the assay on HOP-62 NSCLC, 15.9 nM and < 18.2 nM; with SK-MEL-2 melanoma, 1.27 nM and < 10 nM; with T-47D breast, > 10000 nM and 51100 nM; with MDA-MB-231 breast, 34.3 nM and 28.3 nM. In addition, the GI50 in the assay with SF-539 CNS is > 10 µM and 12.4 µM; with HCT-116 colon, 10.1 nM and < 10 nM; in the assay with OVCAR-3 ovarian, > 10000 nM and 32700 nM; in the assay on UACC-257 melanoma it was 2.34 nM and < 10 nM. The TGI was above 100 µM in the assay on DU-145 prostate; above 100 µM in the assay with MDA-MB-435; above 71.4 µM in the assay on HOP-62 NSCLC; 0.00636 µM and < 0.01 µM in the assay on SK-MEL-2 melanoma; above 100 µM in the assay with T-47D breast; above 100 µM with MDA-MB-231 breast. Further, the TGI with SF-539 CNS is above 100 µM; in the assay on HCT-116 colon, > 10 µM and 20.6 µM; in the assay with OVCAR-3 ovarian, above 100 µM; in the assay with UACC-257 melanoma it was 0.0127 µM and < 0.0141 µM.

Regarding `CN(N=O)c1ccc(/C=C/c2ccnc3ccccc23)cc1`, the TGI with DU-145 prostate, in the assay with MDA-MB-435, in the assay on HOP-62 NSCLC, in the assay with SK-MEL-2 melanoma, in the assay with T-47D breast and with MDA-MB-231 breast was above 100 µM each time. Moreover, the TGI in the assay with SF-539 CNS, in the assay on HCT-116 colon, with OVCAR-3 ovarian and in the assay with UACC-257 melanoma was above 100 µM in each case.

Turning to `COC(=O)[C@]12CC[C@@H](C)[C@H](C)[C@@H]1C1=CC[C@@H]3[C@@]4(C)C[C@@H](OC(C)=O)[C@H](OC(C)=O)[C@@](C)(COC(C)=O)[C@@H]4[C@H](O)C[C@@]3(C)[C@]1(C)CC2`, the GI50 is 3.55 µM in the assay with DU-145 prostate; 1860 nM in the assay with MDA-MB-435; 3250 nM in the assay with HOP-62 NSCLC; 1850 nM in the assay on SK-MEL-2 melanoma; 1030 nM in the assay on T-47D breast; 1910 nM with MDA-MB-231 breast. Besides, the GI50 with SF-539 CNS is 3.92 µM; in the assay with HCT-116 colon, 423 nM; in the assay with OVCAR-3 ovarian it was 2300 nM; with UACC-257 melanoma it was 2430 nM. Also, the TGI is above 100 µM in the assay on DU-145 prostate; above 100 µM in the assay on MDA-MB-435; above 100 µM in the assay with HOP-62 NSCLC; above 100 µM in the assay on SK-MEL-2 melanoma; 8.04 µM in the assay on T-47D breast; above 100 µM with MDA-MB-231 breast. Besides, the TGI in the assay with SF-539 CNS was above 100 µM; in the assay with HCT-116 colon, above 100 µM; with OVCAR-3 ovarian, above 100 µM; in the assay with UACC-257 melanoma, 8.21 µM.

Regarding `COc1cc(/C=N/NC(=O)c2cnn3c2NC(c2ccccc2)C3)ccc1OCc1ccccc1` (stereo not given), the GI50 in the assay with DU-145 prostate was 1.47 µM; with MDA-MB-435 it was 158 nM; in the assay on HOP-62 NSCLC, 1200 nM; in the assay on SK-MEL-2 melanoma it was 1320 nM; in the assay with T-47D breast, 1220 nM; with MDA-MB-231 breast, 2170 nM. Moreover, the GI50 in the assay on SF-539 CNS is 0.524 µM; in the assay on HCT-116 colon, 1180 nM; in the assay on OVCAR-3 ovarian, 331 nM; in the assay with UACC-257 melanoma, 1460 nM. Moreover, the TGI in the assay on DU-145 prostate was 6.4 µM; in the assay on MDA-MB-435, 0.95 µM; in the assay with HOP-62 NSCLC it was 4.27 µM; with SK-MEL-2 melanoma, 7.09 µM; in the assay with T-47D breast, above 37.5 µM; in the assay on MDA-MB-231 breast, 9.39 µM. In addition, the TGI in the assay with SF-539 CNS came to 2.29 µM; in the assay on HCT-116 colon, 11.7 µM; with OVCAR-3 ovarian, 1.34 µM; with UACC-257 melanoma it was 11 µM.

In the case of `O=C1c2ccccc2-c2cn(Cc3ccccc3)c3cccc(c23)C1c1cccnc1` (stereo not given), the GI50 in the assay on DU-145 prostate was 4.27 µM; in the assay with MDA-MB-435 it was 1320 nM; in the assay on HOP-62 NSCLC, 3440 nM; in the assay on SK-MEL-2 melanoma, 3900 nM; with T-47D breast, 2320 nM; with MDA-MB-231 breast it was 4180 nM. The GI50 is 5.67 µM with SF-539 CNS, 1990 nM in the assay with HCT-116 colon, 1800 nM with OVCAR-3 ovarian and 11200 nM in the assay on UACC-257 melanoma. Further, the TGI was 40.5 µM in the assay with DU-145 prostate; 6.13 µM in the assay on MDA-MB-435; above 50 µM in the assay on HOP-62 NSCLC; above 50 µM with SK-MEL-2 melanoma; above 50 µM in the assay on T-47D breast; above 50 µM in the assay with MDA-MB-231 breast. The TGI in the assay with SF-539 CNS was above 50 µM; with HCT-116 colon, above 50 µM; in the assay on OVCAR-3 ovarian, 4.95 µM; with UACC-257 melanoma, above 50 µM.

Take `COc1ccc2c(Cl)cc(NC(=S)Nc3ccccc3)nc2c1`: the TGI with DU-145 prostate was above 100 µM; in the assay on MDA-MB-435, 34.6 µM; with HOP-62 NSCLC, above 100 µM; in the assay with SK-MEL-2 melanoma, 55 µM; in the assay on T-47D breast, 45.3 µM; in the assay on MDA-MB-231 breast, 56.4 µM. The TGI is above 100 µM in the assay on SF-539 CNS, 49.1 µM in the assay with HCT-116 colon, above 100 µM with OVCAR-3 ovarian and above 100 µM in the assay on UACC-257 melanoma.

For `CC/C(=C/c1ccc(OC)cc1)[N+](=O)[O-]`, the GI50 in the assay with DU-145 prostate is 2.17 µM; in the assay with MDA-MB-435, 1680 nM; in the assay on HOP-62 NSCLC, 2230 nM; in the assay on SK-MEL-2 melanoma, 2020 nM; in the assay with T-47D breast it was 1820 nM; in the assay with MDA-MB-231 breast, 2310 nM. The GI50 in the assay with SF-539 CNS is 1.82 µM; in the assay with HCT-116 colon it was 1610 nM; in the assay with OVCAR-3 ovarian, 1860 nM; in the assay on UACC-257 melanoma, 2070 nM. The TGI in the assay on DU-145 prostate was found to be 5.07 µM; with MDA-MB-435 it was 3.6 µM; in the assay on HOP-62 NSCLC, 5.89 µM; in the assay on SK-MEL-2 melanoma, 4.62 µM; with T-47D breast it was 5.95 µM; in the assay on MDA-MB-231 breast, 4.9 µM. Besides, the TGI in the assay with SF-539 CNS was 3.38 µM; with HCT-116 colon, 3.1 µM; in the assay with OVCAR-3 ovarian, 3.35 µM; in the assay on UACC-257 melanoma it was 4.56 µM.
